Reference: PMC11292009, “Mapping protein binding sites by photoreactive fragment pharmacophores” (Communications Chemistry, 2024)
Several values for one entry are separate records, joined by “and”; a condition that tells them apart may be missing. Equal values may be shown once.

Tests used:
SW1990 cells = experiment: MTT cell viability assay, SW1990; type: cell-based, human; conditions: for cell viability: replicates, in % (unit assumed)
Source text: (§1) Pancreatic cancer cell lines PANC-1 (cat. no. CRL-1469), SW1990 (cat. no. CRL-2172) were obtained from ATCC (American Type Culture Collection). Genetically modified isogeneic colon cancer cell lines SW48-PAR and SW48-G12D were obtained from Horizon Discovery Ltd. PANC-1 (human pancreatic cancer, KRas^G12D), SW1990 (human pancreatic cancer, KRas^G12D), SW48-PAR (human colon cancer; parental cell line KRas^wt), and SW48-G12D (human colon cancer; heterozygous knockin of the KRas^G12D activating mutation) cancer cell lines were cultured in Roswell Park Memorial Institute Medium (RPMI; Biosera, Nuaille, France), supplemented with 10% heat-inactivated Fetal Bovine Serum (FBS; Biosera), and with 1% Penicillin/Streptomycin (Biosera). Cells were cultured in sterile T75 flasks with ventilation cap (Sarstedt, Nümbrecht, Germany) at 37 °C in a humidified atmosphere with 5% CO2 in ESCO CelCulture Incubator (ESCO, Friedberg, Germany). Manipulations with the cells were performed in biosafety cabinet (laminar) ESCO Sentinel Gold class II model AC2-4E8 (ESCO).
(§2) After standard harvesting of the cells by trypsin-EDTA (Biosera), 7 × 10^3 cells per well depending on the cell line, were seeded in serum-containing growth medium to 96-well plates and incubated. After 24 h, cells were treated with various concentrations of fragments (32 nM–100 μM), dissolved in serum-containing medium, and incubated under standard conditions. Control wells were treated with medium. Final concentration of serum was 2.5%, final concentration of DMSO was 0.2%. Treatment was for 72 h continuously.
(§3) Afterwards, MTT assay was performed in order to determine cell viability, by adding 20 μL of MTT solution (5 mg/mL in PBS) to each well and after 2 h of incubation at 37 °C, the supernatant was removed. The formazan crystals were dissolved in 100 μL of a 1:1 solution of DMSO (Sigma-Aldrich):EtOH (Molar Chemicals) and the absorbance was measured after 15 min at λ = 570 nm by using a microplate reader (BioTek 800TS, Agilent, Santa Clara, CA, USA). The IC50 values of the fragments were calculated using GraphPad Prism 6 (GraphPad Software, San Diego, CA, USA). The experiments were done in triplicate, and each experiment was repeated two times.

SW48-G12D cells = experiment: MTT cell viability assay, SW48-G12D; type: cell-based, human; conditions: for cell viability: replicates, in % (unit assumed)
Source text: as §1, §2, §3

Q: With Cc1ncc(CO)c(CNC(=O)CCC2(C)N=N2)c1O [PhP072, Cc1ncc(CO)c(c1O)CNC(=O)CCC2(C)N=N2] as the compound, how does the IC50 (SW1990 cells; Homo sapiens, read-out: IC50, antiproliferative activity, SW1990, MTT, 72 h) read?
A: 17.2 µM

Q: And the cell viability (SW1990 cells; SW1990, [PhP072] 3.2e-8 M)?
A: 101.695 and 98.3609 and 102.528 and 107.265 and 99.8137 and 96.5538

Q: What about the cell viability (SW1990 cells; SW1990, [PhP072] 1.6e-7 M) of the same compound?
A: 103.195 and 101.49 and 102.515 and 96.4606

Q: And the cell viability (SW1990 cells; SW1990, [PhP072] 8e-7 M)?
A: 103.528 and 101.528 and 95.5272 and 94.039 and 99.4411 and 93.387

Q: And the cell viability (SW1990 cells; SW1990, [PhP072] 4e-6 M)?
A: 101.861 and 97.8608 and 97.1941 and 99.9069 and 97.2989 and 95.6224

Q: And the cell viability (SW1990 cells; SW1990, [PhP072] 2e-5 M)?
A: 90.5265 and 81.8586 and 88.0261 and 89.1956 and 90.8722 and 79.3227

Q: And the cell viability (SW1990 cells; SW1990, [PhP072] 0.0001 M)?
A: 62.6893 and 57.5219 and 66.8565 and 62.4641 and 63.023 and 60.1356

Q: What about the Antiproliferative effect (SW48-G12D cells; MTT, 72 h) of the same compound?
A: antiproliferative activity

Q: What about the cell viability (SW48-G12D cells; [PhP072] 3.2e-8 M) of the same compound?
A: 102.762 and 97.2381 and 95.6914 and 100.978 and 97.4052 and 99.447

Q: What about the cell viability (SW48-G12D cells; [PhP072] 1.6e-7 M) of the same compound?
A: 100.994 and 98.1219 and 99.0057 and 100.978 and 99.7022 and 99.9575

Q: What about the cell viability (SW48-G12D cells; [PhP072] 8e-7 M) of the same compound?
A: 99.8895 and 99.2267 and 100.552 and 98.9365 and 101.489

Q: And the cell viability (SW48-G12D cells; [PhP072] 4e-6 M)?
A: 98.5638 and 96.7962 and 95.0285 and 98.9365 and 100.723 and 98.6813

Q: What about the cell viability (SW48-G12D cells; [PhP072] 2e-5 M) of the same compound?
A: 91.4933 and 92.1561 and 91.9352 and 92.8111 and 94.0872 and 91.5349

Q: What about the cell viability (SW48-G12D cells; [PhP072] 0.0001 M) of the same compound?
A: 75.1427 and 76.0265 and 77.5732 and 78.5183 and 77.2421 and 80.3049
